The values below come from patent US10399989B2, “Pyrazolopyrimidine derivatives as BTK inhibitors for the treatment of cancer” (Loxo Oncology, Inc., priority 2016, dated 2019).

The subject of test [1] is OCI-Ly10 human DLBCL cells. Briefly: OCI-Ly10 anti-proliferative activity (Resazurin, 72 h). Type of test: cell-based. The note with it: Homo sapiens, OCI-Ly10, 72 h, read-out: Proliferation OCI-Ly10-IC50. The method, boiled down: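 Resazurin fluorescence (590 nm, 5 h dye incubation) read after 72 h compound exposure at 37 °C; NFκB-dependent cells seeded at 7.5×10^3/well in 2.5% FBS medium. Day 0 signal subtracted, values normalised to DMSO control; IC50 from log[inhibitor] vs response, variable-slope fit.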

For another test, the target named is EGFR (Homo sapiens (Human), UniProt P00533). Briefly: EGFR binding affinity (TR-FRET, LanthaScreen). The note with it: 5 h incubation. Put shortly: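 IC50 derived by variable-slope fit of TR-FRET signal (ex 340, em 615 and 665 nm) against inhibitor concentration. Mix contained recombinant GST-detected EGFR at 2.5 nM, Eu anti-GST antibody at 2 nM and Kinase Tracer 199 at 3 nM in Kinase Buffer A, 5 h incubation.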
Sequence of EGFR (P00533 25-1210): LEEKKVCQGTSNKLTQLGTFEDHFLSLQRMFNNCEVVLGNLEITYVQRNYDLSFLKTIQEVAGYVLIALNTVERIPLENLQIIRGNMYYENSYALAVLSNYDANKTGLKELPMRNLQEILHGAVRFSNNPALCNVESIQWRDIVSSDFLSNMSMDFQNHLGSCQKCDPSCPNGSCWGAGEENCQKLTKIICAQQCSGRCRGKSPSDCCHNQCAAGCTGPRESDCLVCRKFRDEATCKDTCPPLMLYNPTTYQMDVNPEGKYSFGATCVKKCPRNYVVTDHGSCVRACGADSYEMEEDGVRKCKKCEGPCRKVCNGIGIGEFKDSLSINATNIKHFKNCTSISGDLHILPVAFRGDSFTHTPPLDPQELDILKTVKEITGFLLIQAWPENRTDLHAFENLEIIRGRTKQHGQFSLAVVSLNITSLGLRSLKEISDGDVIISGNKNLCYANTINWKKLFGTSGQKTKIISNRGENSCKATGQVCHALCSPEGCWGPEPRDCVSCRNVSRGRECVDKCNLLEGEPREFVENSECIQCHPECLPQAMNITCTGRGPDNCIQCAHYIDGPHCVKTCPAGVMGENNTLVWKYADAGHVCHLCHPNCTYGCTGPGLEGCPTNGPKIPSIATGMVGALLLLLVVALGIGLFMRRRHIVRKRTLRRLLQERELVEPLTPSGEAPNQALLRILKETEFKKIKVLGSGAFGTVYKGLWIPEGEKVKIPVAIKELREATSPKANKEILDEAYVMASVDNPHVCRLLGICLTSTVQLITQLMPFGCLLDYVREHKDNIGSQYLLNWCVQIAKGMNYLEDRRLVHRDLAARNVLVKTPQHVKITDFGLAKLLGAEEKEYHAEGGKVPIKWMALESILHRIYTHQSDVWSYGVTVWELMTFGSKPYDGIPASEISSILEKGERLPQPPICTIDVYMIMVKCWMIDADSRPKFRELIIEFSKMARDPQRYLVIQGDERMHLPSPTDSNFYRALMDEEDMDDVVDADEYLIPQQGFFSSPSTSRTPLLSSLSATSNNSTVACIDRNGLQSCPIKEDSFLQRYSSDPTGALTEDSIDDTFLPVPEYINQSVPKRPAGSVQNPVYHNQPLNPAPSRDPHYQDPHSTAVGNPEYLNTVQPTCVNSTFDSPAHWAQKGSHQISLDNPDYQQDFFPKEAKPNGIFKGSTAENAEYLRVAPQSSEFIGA

A further test addresses BTK^WT (Homo sapiens (Human), UniProt Q06187). Briefly: BTK^WT binding affinity (TR-FRET, LanthaScreen). The following applies: TR-FRET binding, 5 h incubation; read-out: BTK^WT IC50. The method, boiled down: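 Tracer-displacement TR-FRET: 2.5 nM recombinant BTK, 2 nM Eu anti-His antibody and 15 nM Kinase Tracer 236 in Kinase Buffer A with inhibitor for 5 h. Emission read at 615/665 nm (excitation 340 nm); IC50 from variable-slope fit of log concentration vs response.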

In another test the target is BTK^C481S (Homo sapiens (Human), UniProt Q06187, C481S). Briefly: BTK^C481S binding affinity (TR-FRET, LanthaScreen). The following applies: 5 h incubation. The method, boiled down: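 Tracer-displacement TR-FRET: 5 nM recombinant kinase, 2 nM Eu anti-His antibody and 30 nM Kinase Tracer 236 incubated 5 h with varying inhibitor in Kinase Buffer A. Read at 340 nm excitation, 615/665 nm emission. IC50 from log[inhibitor]–response variable-slope fit.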
Sequence of BTK^C481S (Q06187 whole entry C481S): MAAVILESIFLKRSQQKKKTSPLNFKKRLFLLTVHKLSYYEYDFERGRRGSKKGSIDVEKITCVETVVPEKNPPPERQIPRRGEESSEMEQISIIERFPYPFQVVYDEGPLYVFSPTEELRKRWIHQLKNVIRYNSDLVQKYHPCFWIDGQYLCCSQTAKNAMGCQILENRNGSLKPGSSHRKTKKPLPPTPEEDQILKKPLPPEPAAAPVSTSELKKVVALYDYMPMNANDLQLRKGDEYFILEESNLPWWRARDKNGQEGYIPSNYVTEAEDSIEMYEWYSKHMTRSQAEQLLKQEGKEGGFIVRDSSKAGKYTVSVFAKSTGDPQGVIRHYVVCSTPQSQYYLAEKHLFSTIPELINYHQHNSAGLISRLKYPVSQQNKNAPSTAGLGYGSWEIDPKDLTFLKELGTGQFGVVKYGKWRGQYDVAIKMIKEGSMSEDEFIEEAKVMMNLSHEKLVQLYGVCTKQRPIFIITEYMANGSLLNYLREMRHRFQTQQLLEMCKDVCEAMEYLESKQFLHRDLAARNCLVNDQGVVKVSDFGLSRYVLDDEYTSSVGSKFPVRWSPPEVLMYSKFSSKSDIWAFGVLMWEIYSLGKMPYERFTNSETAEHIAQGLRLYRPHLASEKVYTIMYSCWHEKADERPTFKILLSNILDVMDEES

Sequence of BTK^WT (Q06187 whole entry): as the sequence (Q06187 whole entry C481S) above, with S481C counted along it

For `Nc1ncnc2c1c(-c1ccc(CNC(=O)c3cccc4cccnc34)cc1)nn2C1CCCC1` [Example 70, N-[[4-(4-amino-1-cyclopentyl-pyrazolo[3,4-d]pyrimidin-3-yl)phenyl]methyl]quinoline-8-carboxamide], the IC50 was 100 to 1000 nM in test [1], 100 to 1000 nM on EGFR, no more than 10 nM on BTK^WT and no more than 10 nM at BTK^C481S.

As to `COc1ccccc1C(=O)NCc1ccc(-c2nn(CC(C)O)c3ncnc(N)c23)cc1` (stereo not shown) [Example 74, N-[[4-[4-amino-1-(2-hydroxypropyl)pyrazolo[3,4-d]pyrimidin-3-yl]phenyl]methyl]-2-methoxy-benzamide], the IC50 lay within 100 to 1000 nM in test [1], 1000 to 10000 nM on EGFR, 10 to 100 nM at BTK^WT and 10 to 100 nM at BTK^C481S.

Regarding `COc1ccccc1C(=O)NCc1ccc(-c2nn(CC(C)C)c3ncnc(N)c23)cc1` [Example 76, N-[[4-(4-amino-1-isobutyl-pyrazolo[3,4-d]pyrimidin-3-yl)phenyl]methyl]-2-methoxy-benzamide], the IC50 in test [1] was 100 to 1000 nM; on EGFR it was 100 to 1000 nM; at BTK^WT it was no more than 10 nM; on BTK^C481S it was no more than 10 nM.

Take `COc1ccccc1C(=O)NCc1ccc(-c2nn(C3CCCC3)c3ncnc(N)c23)c(OC)c1` [Example 77, N-[[4-(4-Amino-1-cyclopentyl-pyrazolo[3,4-d]pyrimidin-3-yl)-3-methoxy-phenyl]methyl]-2-methoxy-benzamide]: the IC50 was 10 to 100 nM in test [1], greater than 10000 nM on EGFR, no more than 10 nM on BTK^WT and no more than 10 nM on BTK^C481S.

With `COc1ccccc1C(=O)NCc1ccc(-c2nn(C3CCCC3)c3ncnc(N)c23)cc1C` [Example 89, N-[[4-(4-Amino-1-cyclopentyl-pyrazolo[3,4-d]pyrimidin-3-yl)-2-methyl-phenyl]methyl]-2-methoxy-benzamide], the IC50 was 100 to 1000 nM in test [1], 100 to 1000 nM at EGFR, no more than 10 nM on BTK^WT and no more than 10 nM at BTK^C481S.

Turning to `COc1ccccc1C(=O)NCc1ccc(-c2nn(CC(F)(F)F)c3ncnc(N)c23)cc1` [Example 90, N-[[4-[4-Amino-1-(2,2,2-trifluoroethyl)pyrazolo[3,4-d]pyrimidin-3-yl]phenyl]methyl]-2-methoxy-benzamide], the IC50 in test [1] was 1000 to 10000 nM; at EGFR, greater than 10000 nM; on BTK^WT, 10 to 100 nM; on BTK^C481S it was 10 to 100 nM.

In the case of `COc1ccc(F)cc1C(=O)NCc1ccc(-c2nn(CC(F)(F)F)c3ncnc(N)c23)cc1` [Example 93, N-[[4-[4-Amino-1-(2,2,2-trifluoroethyl)pyrazolo[3,4-d]pyrimidin-3-yl]phenyl]methyl]-5-fluoro-2-methoxy-benzamide], the IC50 was 100 to 1000 nM in test [1], greater than 10000 nM on EGFR, no more than 10 nM on BTK^WT and no more than 10 nM at BTK^C481S.
